Experimental data reported in US20190350955A1, “METHODS AND PHARMACEUTICAL COMPOSITIONS FOR THE TREATMENT OF CARDIOMYOPATHIES” (INSERM (Institut National de la Sante et de la Recherche …, priority 2016, published 2019).

Columns and labels:
[1] = test system: neonatal rat cardiomyocytes (NRC); experiment: Western blot of AMPK phosphorylation and Nmrk2 protein in NRC; assay type: cell-based; conditions: AICAR 500 μM, 48 h
Protocol: Proteins were homogenized in a lysis buffer (Tris-HCl pH 7.5 50 mM, NP40 Igepal 1%, NaCl 150 mM, EDTA 1 mM, DTT 1 mM, Glycerol 10%) in the presence of proteases.
phosphatases and deacetylases inhibitors (PMSF 0.5 mM, NaF 50 mM, PPiNa 5 mM, Roche protease cocktail inhibitor 1/100, Santa Cruz deacetylase cocktail inhibitor 1/100). Equal amounts of proteins (10 to 20 μg) were separated on SDS-PAGE and transferred to nitrocellulose membranes. Proteins were detected by overnight incubation at 4° C. with primary antibodies, followed by IRDye 700 or IRDye800 fluorescent antibodies (Li-Cor Biosciences. 1/2500) and scanned on an Odyssey CLx Infrared Imaging System (Li-Cor Biosciences).
(§1) Isolation and Treatments of Neonatal Rat Cardiomyocytes (NRC) NRC were isolated as described previously (Diguet et al., 2011). 1-day-old rat pups were killed by decapitation and the cardiac ventricles were harvested and minced into 1 to 2-mm wide cubes with scissors. After washing with Tyrode solution, heart fragments were subjected up to 10 rounds of digestion with 0.05 mg/ml of Liberase Blendzyme 4 (Roche Applied Science) in 10 ml oxygenated Tyrode solution under agitation at 37° C. for 10 minutes. The supernatant of the first digestion was discarded and the following digestions were centrifuged and the cell pellet dissociated in 2 ml of DMEM, 10% FCS. […]

[2] = test system: neonatal rat cardiomyocytes (NRC); experiment: NAD+ and NADH levels in NRC; assay type: cell-based; conditions: AICAR treatment
Protocol: For cell cultures, the wells were washed twice with PBS and scraped on ice in HClO4 0.5M (100 μl/well in 12-well plate). Acid extracts were neutralized with a half volume of KOH 1M/K2HPO4-KH2PO4 0.33 M pH 7.5. Heat denaturation was selective for NAD^+ in this condition. Measures were made on a volume of […], of non heated extracts (NADt) or 25 μl of heated extracts (NADH) (diluted 1/10 to 1/20).
For both types of extracts (buffered ethanol or HClO4) we added 100 μL of reaction buffer (600 mM ethanol, 0.5 mM 3-(4.5-dimethylthiazol-2-yl)-2.5-diphenyltetrazolium bromide (MTT), 2 mM phenazine ethosulfate (PES), 120 mM Bicine (pH 7.8), yeast alcohol dehydrogenase (SIGMA A3263>300 u/mg.) 0.05 mg/ml. Kinetics of the reaction (OD at 550 nm, every 30 seconds for 40 minutes) was followed on a TECAN Infinite F500 microplate reader. NAD was quantified in duplicates for each sample by comparison to a range of standard NAD^+ concentration using linear regression curve equation method between NAD^+ standard concentrations and the slope of the reaction in OD units/sec. NAD^+/NADH was obtained by the formula ([NADt]−[NADH])/[NADH]. Cell extracts were quantified for protein concentration determined by Bradford assay.
Isolation and Treatments of Neonatal Rat Cardiomyocytes (NRC) NRC were isolated as described previously (Diguet et al., 2011). […]

Nmrk2 = experiment: RT qPCR of Nmrk2 mRNA in NRC; assay type: cell-based, rat; conditions: AICAR treatment
Protocol: cDNAs were reverse transcribed from RNA (1.5 μg) extracted in TRIzol (Thermofisher) from cell cultures and tissues using the Superscript II Reverse Transcriptase (Life Technologies). Quantitative PCR was carried out on a Light Cycler 480 (Roche Diagnostics) using Fast Start SYBR Green Master (Roche Diagnostics). Quantification of gene expression was calculated as R=2^ΔCt(Ref Cp−target Cp), with Hprt used as a as reference. Primers were designed using the NCBI Primer-BLAST software. Primer sequences are available on request.
as §1, with “FCS. The different fractions were pooled and centrifuged on a discontinuous Percoll gradient (bottom 58.5%. top 40.5%. 30 min. 3000 rpm) to enrich in cardiomyocytes at the interface between the 2 Percoll solutions.” for “FCS.”

Nmrk2 promoter = Nmrk2 promoter luciferase reporter assay in NRC; assay type: cell-based, rat; conditions: NRC, AICAR 500 μM
Protocol: Isolation and Treatments of Neonatal Rat Cardiomyocytes (NRC) NRC were isolated as described previously (Diguet et al., 2011). 1-day-old rat pups were killed by decapitation and the cardiac ventricles were harvested and minced into 1 to 2-mm wide cubes with scissors. After washing with Tyrode solution, heart fragments were subjected up to 10 rounds of digestion with 0.05 mg/ml of Liberase Blendzyme 4 (Roche Applied Science) in 10 ml oxygenated Tyrode solution under agitation at 37° C. for 10 minutes. The supernatant of the first digestion was discarded and the following digestions were centrifuged and the cell pellet dissociated in 2 ml of DMEM, 10% FCS. The different fractions were pooled and centrifuged on a discontinuous Percoll gradient (bottom 58.5%. top 40.5%. 30 min. 3000 rpm) to enrich in cardiomyocytes at the interface between the 2 Percoll solutions. Non cardiac cells containing mainly fibroblasts were at the top of the tubes. Neonatal cardiomyocytes were seeded at a density 5×10^5 cells/well in 6-well plates coated with 10 μg/ml of laminin (BD Biosciences) in DMEM without pyruvate, with glucose 4.5 g/l, 10% horse serum, 5% FCS and cultured at 37° C. in 1% CO, atmosphere. To assay the impact on NAD^+ and Nmrk2 expression, Azaserin and FK866 drugs were added in the culture medium at day 5 and renewed everyday when the treatment was prolonged over several days. The same was done for NAD^+, NR and AICAR (5-aminoimidazole-4-carboxamide-1-β-D-ribofuranoside). AICAR was administrated for 24 h only. Doses are indicated in the legends. For treatment of transfected cells (see next section), AICAR, FK866 and PPAR agonists and antagonist were administrated 1 day after transfection. PPAR agonists: GW7647 for PPARα, GW501516 for PPARβ/δ and GW1929 for PPARγ; PPAR antagonists: GW6471 PPARα, GSK3787 for PPARβ/δ and GW9662 for PPARγ were ordered from SIGMA ALDRICH CHIMIE, Saint Quentin Fallavier, France.
The transcription initiation site of mouse Nmrk2 promoter was determined by 5′RACE and was conform to the reported site in the Genebank (NM_027120.2). The promoter of the mouse Nmrk2 gene was cloned from C57B16/N genomic DNA by PCR, and inserted into a pGL4.10[luc2] luciferase reporter plasmid (Promega prod no E6651). Subsequent deletions were performed by enzymatic digestion or primer mediated subcloning of the original fragment. 2.5×10^5 cardiomyocytes in 12-well plates were co-transfected at day 2 of culture with 1 μg of Nmrk2 pGL4.10[luc2] constructs and 100 ng of pGL4.73[hRluc/SV40] Vector (Promega prod no E6911) as an internal control of transfection efficiency using Lipofectamine 2000 (Lifetechnology) as indicated by the supplier. In the case of AICAR treatment, Luciferase activity was analyzed 48 h later with the Dual-Luciferase Assay System (Promega).
The pcDNA3 vectors harboring dominant negative AMPK, PPARα, PPARβ and PPARγ as well as RXR genes were kindly provided by Pr. Michel Raymondjean (El Hadri et al. (2015). AMPK Signaling Involvement for the Repression of the IL-1beta-Induced Group IIA Secretory Phospholipase A2 Expression in VSMCs. Journal 10, e0132498; Ravaux et al. (2007). Inhibition of interleukin-1 beta-induced group 11A secretory phospholipase A2 expression by peroxisome proliferator-activated receptors (PPARs) in rat vascular smooth muscle cells: cooperation between PPARbeta and the proto-oncogene BCL-6. Journal 27, 8374-8387; Woods et al. (2000). Characterization of the role of AMP-activated protein kinase in the regulation of glucose-activated gene expression using constitutively active and dominant negative forms of the kinase. Journal 20, 6704-6711). These vectors were cotransfected at a dose of 100 ng/well in 24-well plates with 500 ng of Nmrk2 luciferase constructs.

full-length p3009-Luc Nmrk2 reporter response (Nmrk2 promoter): highly responsive | p581-Luc Nmrk2 reporter response (Nmrk2 promoter): modestly responsive
Structure (SMILES): NC(=O)c1ncn([C@@H]2O[C@H](COP(=O)(O)O)[C@@H](O)[C@H]2O)c1N [AICAR, 5-Aminoimidazole-4-carboxamide ribonucleotide]
AMPK phosphorylation [1]: stimulated | Nmrk2 expression at the protein level [1]: induced | NAD+ or NADH levels [2]: did not modulate | Nmrk2 expression (mRNA) (Nmrk2): robustly induced
